Data on 15 molecules can be found in US9795608B2, “Protein kinase inhibitors” (PHARMASCIENCE, INC., priority 2012, dated 2017).

The test system of one experiment is Splenocytes. In words: Splenic Cell Proliferation Assay (anti-IgM stimulated B cell proliferation, Cell Titer-Glo). The class given is cell-based. The following applies: Splenocyte; CD1 mouse splenocytes, 2.5 ug/ml anti-IgM F(ab')2, 72 h; read-out: EC50 (nM), Inhibition of splenic cell proliferation. The method, then:
Splenic Cell Proliferation Assay
Splenocytes were obtained from 6 week old male CD1 mice (Charles River Laboratories Inc.). Mouse spleens were manually disrupted in PBS and filtered using a 70 um cell strainer followed by ammonium chloride red blood cell lysis. Cells were washed, resuspended in Splenocyte Medium (HyClone RPMI supplemented with 10% heat-inactivated FBS, 0.5× non-essential amino acids, 10 mM HEPES, 50 uM beta mercaptoethanol) and incubated at 37° C., 5% CO2 for 2 h to remove adherent cells. Suspension cells were seeded in 96 well plates at 50,000 cells per well and incubated at 37° C., 5% CO2 for 1 h. Splenocytes were pre-treated in triplicate with 10,000 nM curves of Formula 1 compounds for 1 h, followed by stimulation of B cell proliferation with 2.5 ug/ml anti-IgM F(ab′)2 (Jackson ImmunoResearch) for 72 h. Cell proliferation was measured by Cell Titer-Glo Luminescent Assay (Promega). EC50 values (50% proliferation in the presence of compound as compared to vehicle treated controls) were calculated from dose response compound curves using GraphPad Prism Software.

Experiment [1] deals with histidine tagged recombinant human full-length Bruton Agammaglobulinemia Tyrosine Kinase (Btk) (Homo sapiens (Human), UniProt Q06187). Put plainly: Btk Kinase Inhibition Assay (fluorescence polarization, KinEASE FP Fluorescein Green). The following applies: 10 μM ATP, 250 μM substrate, 60 minutes room temperature; Ki from IC50 by Cheng-Prusoff. The class given is biochemical. Here is the method:
Kinase Binding Btk Kinase Inhibition Assay
Fluorescence polarization-based kinase assays were performed in 384 well-plate format using histidine tagged recombinant human full-length Bruton Agammaglobulinemia Tyrosine Kinase (Btk) and a modified protocol of the KinEASE™ FP Fluorescein Green Assay supplied from Millipore. Kinase reaction were performed at room temperature for 60 minutes in presence of 250 μM substrate, 10 μM ATP and variable test article concentrations. The reaction was stopped with EDTA/kinease detection reagents and the polarization measured on a Tecan 500 instrument. From the dose-response curve obtained, the IC50 was calculated using Graph Pad Prisms® using a non linear fit curve. The Km for ATP on each enzyme was experimentally determined and the Ki values calculated using the Cheng-Prusoff equation (see: Cheng Y, Prusoff W H. (1973) Relationship between the inhibition constant (K1) and the concentration of inhibitor which causes 50 percent inhibition (I50) of an enzymatic reaction”. Biochem Pharmacol 22 (23): 3099-108).
(Fluorescence polarisation rises when a labelled molecule tumbles more slowly, as on binding a larger partner.)

For a further experiment, the system named is Balb/c mice. Put plainly: Mouse Arthus. The class given is in vivo. The following applies: delivered orally at 30 mg/kg, female Balb/c mice. The method, then:
Mouse Arthus studies were conducted as reported in Braselmann S, Taylor V, Zhao H, Wang S, Sylvain C, Baluom M, Qu K, Herlaar E, Lau A, Young C, Wong B R, Lovell S, Sun T, Park G, Argade A, Jurcevic S, Pine P, Singh R, Grossbard E B, Payan D G, Masuda E S: R406 an orally available spleen tyrosine kinase inhibitor blocks fc receptor signaling and reduces immune-complex mediated inflammation. J Pharmacol Exp Ther, 2006, 319:998-1008.
In summary, female Balb/c mice (6-7 weeks on arrival) were habituated to the animal facility for at least 4 days. On the day of the experiment, animals were pre-treated (t=minus 1 h) with compound or vehicle alone by gavage (PO). At t=0, animals were injected intravenously (IV; 0.1 mL/mouse) with saline containing chicken ovalbumin and Evan's blue (10 mg/mL of each). Ten minutes later (t=10 min), animals were anesthesized with isoflurane, the dorsal surface was shaved and rabbit anti-chicken ovalbumin antibody was then injected intradermally at one site on the right side of the animal (25 μg in 30 μL). […]
The animals were then returned to their home cage and skin punches (8 mm) were collected from each injection site four hours later. […] The amount of Evan's blue in the formamide solution was then assessed by spectrophotometry (630 nm) as a measure of serum extravasation into the dermis.

SMILES strings stand for the structures. A value given as a limit tells only on which side of the number the result lay.

Sequence of histidine tagged recombinant human full-length Bruton Agammaglobulinemia Tyrosine Kinase (Btk) (Q06187 whole entry): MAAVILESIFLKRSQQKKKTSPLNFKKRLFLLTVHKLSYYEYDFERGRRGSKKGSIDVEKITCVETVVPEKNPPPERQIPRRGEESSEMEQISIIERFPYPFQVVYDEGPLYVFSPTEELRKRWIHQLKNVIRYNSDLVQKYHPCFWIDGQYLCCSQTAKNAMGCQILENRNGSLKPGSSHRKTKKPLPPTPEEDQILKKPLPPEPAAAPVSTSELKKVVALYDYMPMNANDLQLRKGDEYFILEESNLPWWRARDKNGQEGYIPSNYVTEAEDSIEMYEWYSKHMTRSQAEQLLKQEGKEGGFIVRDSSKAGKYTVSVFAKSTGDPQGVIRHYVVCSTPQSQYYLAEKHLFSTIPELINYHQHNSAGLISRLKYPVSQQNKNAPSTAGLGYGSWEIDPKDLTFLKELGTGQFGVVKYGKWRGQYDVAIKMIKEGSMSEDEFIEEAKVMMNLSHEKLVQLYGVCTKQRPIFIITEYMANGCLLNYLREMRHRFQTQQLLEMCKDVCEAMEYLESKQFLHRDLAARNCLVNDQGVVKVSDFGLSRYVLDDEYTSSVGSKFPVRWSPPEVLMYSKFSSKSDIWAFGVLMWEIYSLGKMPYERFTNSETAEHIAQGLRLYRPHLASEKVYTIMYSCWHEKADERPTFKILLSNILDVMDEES

What is called Ki is the dissociation constant of the complex between target and ligand, obtained from inhibition or displacement. As for `Nc1ncnc2c(C3CCCC3)nn(-c3ccc(Oc4cccc(OCc5cncs5)c4)cc3)c12` [Compound 1], the EC50 with Splenocytes was under 100 nM. For the same molecule, the inhibition constant Ki in experiment [1] is under 100 nM.

On to `Cc1ncc(COc2cccc(Oc3ccc(-n4nc(C5CCCC5)c5ncnc(N)c54)cc3)c2)s1` [Compound 2], for which the EC50 with Splenocytes was under 100 nM. Further, the Ki in experiment [1] is under 100 nM.

Turning to `Cc1ncc(COc2cc(F)cc(Oc3ccc(-n4nc(C5CCOCC5)c5ncnc(N)c54)cc3)c2)s1` [Compound 3], the EC50 with Splenocytes was under 100 nM. Further, the Ki in experiment [1] is under 100 nM.

Consider `Cn1cncc1COc1cc(F)cc(Oc2ccc(-n3nc(C4CCOCC4)c4ncnc(N)c43)cc2)c1` [Compound 4], for which the EC50 in the experiment with Splenocytes was under 100 nM. Further, the Ki in experiment [1] is under 100 nM.

As for `Cc1ncc(COc2cc(F)cc(Oc3ccc(-n4nc(C5CCOCC5)c5ncnc(N)c54)cc3)c2)o1` [Compound 5], the EC50 in the experiment with Splenocytes is under 100 nM. In addition, the Ki in experiment [1] was under 100 nM.

As for `Cc1ccc(COc2cc(F)cc(Oc3ccc(-n4nc(C5CCCC5)c5ncnc(N)c54)cc3)c2)cn1` [Compound 6], the EC50 in the experiment with Splenocytes was under 100 nM. In addition, the Ki in experiment [1] was under 100 nM.

As for `Cc1ncc(COc2cc(F)cc(Oc3ccc(-n4nc(C5CCCC5)c5ncnc(N)c54)cc3)c2)s1` [Compound 7], in the experiment with Splenocytes, the EC50 was under 100 nM. Besides, the Ki in experiment [1] was under 100 nM.

For the molecule `Cc1ncc(COc2cc(F)cc(Oc3ccc(-n4nc(C5CCCC5)c5ncnc(N)c54)cc3)c2)cn1` [Compound 8], the EC50 with Splenocytes is under 100 nM. The Ki in experiment [1] is under 100 nM.

As to `Cc1ncc(COc2cc(F)cc(Oc3ccc(-n4nc(C(C)C)c5ncnc(N)c54)cc3)c2)s1` [Compound 9], in the experiment with Balb/c mice, the “efficacy in mouse Arthus (Evan's blue serum extravasation into the dermis)” value is “demonstrated efficacy”. Further, the EC50 with Splenocytes is under 100 nM. Moreover, the Ki in experiment [1] was under 100 nM.

For `Cc1ncc(COc2cc(F)cc(Oc3ccc(-n4nc(C(C)C)c5ncnc(N)c54)cc3)c2)cn1` [Compound 10], the “efficacy in mouse Arthus (Evan's blue serum extravasation into the dermis)” value with Balb/c mice is “demonstrated efficacy”. Moreover, in the experiment on Splenocytes, the EC50 was under 100 nM. The Ki in experiment [1] was under 100 nM.

As to `Cc1ccc(COc2cc(F)cc(Oc3ccc(-n4nc(C(C)C)c5ncnc(N)c54)cc3)c2)cn1` [Compound 11], in the experiment on Splenocytes, the EC50 was under 100 nM. In addition, in experiment [1], the Ki was under 100 nM.

Turning to `CC(C)c1nn(-c2ccc(Oc3cc(F)cc(OCc4ccccc4)c3)cc2)c2c(N)ncnc12` [Compound 12], in the experiment with Splenocytes, the EC50 is under 100 nM. For the same molecule, the Ki in experiment [1] was under 100 nM.

In the case of `Nc1ncnc2c(C3CCOCC3)nn(-c3ccc(Oc4cc(F)cc(OCc5ccccc5)c4)cc3)c12` [Compound 13], in the experiment with Splenocytes, the EC50 is under 100 nM. Moreover, the Ki in experiment [1] is under 100 nM.

On to `Cc1ccc(COc2cc(F)cc(Oc3ccc(-n4nc(C5CCOCC5)c5ncnc(N)c54)cc3)c2)cn1` [Compound 14], for which, in the experiment on Splenocytes, the EC50 was under 100 nM. Further, the Ki in experiment [1] was under 100 nM.

Regarding `Cc1ncc(COc2cc(F)cc(Oc3ccc(-n4nc(C5CCOCC5)c5ncnc(N)c54)cc3)c2)cn1` [Compound 15], the Ki in experiment [1] is under 100 nM.
